The nature of data set [1]: Plasma stability assay, mouse plasma. The class given is in vitro ADME. The settings on record: for % compound remaining at last time-point, plasma: 2.0 μM, 120 min; for half-life at 2 μM: n ≥ 3, read-out: plasma t1/2. Here is the method:
(§1) 10 mM DMSO stock solution of test compound (39 or 50) was diluted 50-fold with DMSO/H2O (1:1) and incubated at 37 °C for 2 h with mouse or rat plasma added with 5% DMSO (preheated at 37 °C for 10 min). The final compound’s concentration was 2.0 μM. At each time point (0, 5, 15, 30, 60, and 120 min), 50 μL of incubation mixture was diluted with 150 μL cold CH3CN spiked with 200 nM of warfarin, as the internal standard, followed by centrifugation at 3.270g for 20 min. The supernatant was further diluted with H2O (1:1) and analyzed by LC–MS/MS on a Waters ACQUITY UPLC-MS TQD system consisting of a triple quadrupole detector (TQD) mass spectrometer equipped with an electrospray ionization interface and a photodiode array eλ detector (PDA) from Waters Inc. (Milford, MA, USA). Electrospray ionization was applied in positive mode. Compound-dependent parameters as MRM transitions and collision energy were developed for each compound. The analyses were run on an ACQUITY UPLC BEH C18 (50 × 2.1 mm ID, particle size 1.7 μm) with a VanGuard BEH C18 precolumn (5 × 2.1 mm ID, particle size 1.7 μm) at 40 °C, using H2O + 0.1% HCOOH (A) and CH3CN + 0.1% HCOOH (B) as the mobile phase. The percentage of the test compound remaining at each time point relative to t = 0 was calculated by the response factor on the basis of the internal standard peak area. The percentage of test compound versus time was plotted and fitted by GraphPad Prism (GraphPad Software, Version 5 for Windows, CA, USA, www.graphpad.com) to estimate the compound’s half-life (t1/2), which was reported as mean value along with the standard deviation (n = 3).

The nature of data set [2]: Plasma stability assay, rat plasma. The following applies: for % compound remaining at last time-point, plasma: 2.0 μM, 120 min; for half-life at 2 μM: n ≥ 3, read-out: plasma t1/2. The data set is classed as in vitro ADME. Here is the method:
as §1

Data set [3] in a line: Mouse pharmacokinetics, i.v. and p.o. The data set is classed as in vivo. The settings on record: plasma, male C57BL/6 mice; for AUC at 4 h / Cmax at 4 h / Tmax at 4 h / Vd at 4 h / clearance at 4 h / bioavailability at 4 h: iv; for AUC at 4 h / Cmax at 4 h / Tmax at 4 h / Vd at 4 h / clearance at 4 h: i.v. 3 mg/kg; for AUC at 8 h / Cmax at 8 h / Tmax at 8 h: po, p.o. 10 mg/kg. Here is the method:
Male C57BL/6 mice, weighing 22–24 g, were used (Charles River). All procedures were performed in accordance with the Ethical Guidelines of European Communities Council (Directive 2010/63/EU of 22 September 2010) and accepted by the Italian Ministry of Health. All efforts were made to minimize animal suffering and to use the minimal number of animals required to produce reliable results, according to the “3Rs concept”. Animals were group-housed in ventilated cages and had free access to food and water. They were maintained under a 12 h light/dark cycle (lights on at 8:00 am) at controlled temperature (21 ± 1 °C) and relative humidity (55 ± 10%).
Compound 39 or 50 was administered p.o. and i.v. to C57BL/6 male mice at 10 and 3 mg/kg. The vehicle used was PEG400/Tween 80/saline solution at 10/10/80% in volume, respectively. Three animals per each time point were treated. Blood samples at 0, 15, 30, 60, 120, 240, and 480 min after administration were collected for the p.o. arm. Blood samples at 0, 5, 15, 30, 60, 120, and 240 min after administration were collected for the i.v. arm. Plasma was separated from blood by centrifugation for 15 min at 1500 rpm a 4 °C, transferred to Eppendorf tubes, and frozen (−80 °C). Control animals treated with vehicle only were also included in the experimental protocol.
Plasma samples were centrifuged at 21,100g for 15 min at 4 °C. An aliquot of each sample was extracted (1:3) with cold CH3CN containing 200 nM of an appropriate internal standard as a close analogue of the parent compound (for compound 39: (1R,3r,5S)-3-(4-phenylphenoxy)-8-((3,5-dimethyl-1H-pyrazol-4-yl)sulfonyl)-8 azabicyclo[3.2.1]octane; for compound 50: (1R,3r,5S)-3-((5-methylpyrazin-2-yl)oxy)-8-((3,5-dimethyl-1H-pyrazol-4-yl)sulfonyl)-8-azabicyclo[3.2.1]octane). A calibration curve was obtained in blank mouse plasma over a 1 nM to 10 μM range. Three quality controls were prepared by spiking the parent compound in blank mouse plasma to 20, 200, and 2.000 nM, as final concentrations. The calibrators and quality controls were extracted (1:3) with the same extraction solution as the plasma sample. The plasma samples, the calibrators, and quality controls were centrifuged at 3.270g for 15 min at 4 °C. The supernatants were further diluted (1:1) with H2O + 0.1% HCOOH, and analyzed by LC–MS/MS on a Waters ACQUITY UPLC-MS TQD system consisting of a Triple Quadrupole Detector (TQD) Mass Spectrometer equipped with an Electrospray Ionization interface and a Photodiode Array eλ Detector from Waters Inc. (Milford, MA, USA). Electrospray ionization was applied in positive mode. Compound-dependent parameters such as MRM transitions and collision energy were developed for the parent compound and the internal standard. The analyses were run on an ACQUITY UPLC BEH C18 (50 × 2.1 mm ID, particle size 1.7 μm) with a VanGuard BEH C18 precolumn (5 × 2.1 mm ID, particle size 1.7 μm) at 40 °C. The mobile phase was H2O + 0.1% HCOOH (A) and CH3CN + 0.1% HCOOH (B) at a flow rate = 0.5 mL/min. A linear gradient was applied starting at 10% B with an initial hold for 0.2 min, then 10–100% B in 2 min. All samples (plasma samples, calibrators, and quality controls) were quantified by the MRM peak area response factor in order to determine the levels of the parent compound in plasma. The concentrations versus time were plotted and the profiles were fitted using PK Solutions Excel Application (Summit Research Service, USA) in order to determine the pharmacokinetic parameters.

Setting [4] is: p.o. 10 mg/kg vs i.v. 3 mg/kg, read-out: F (oral bioavailability).

SMILES strings stand for the structures. A value given as a limit tells only on which side of the number the result lay.

One may read the AUC as concentration integrated over time. Read a high AUC as more exposure. The Cmax is the peak of the concentration-time curve. Usually Tmax stands for the time from dosing to the highest level. By bioavailability is commonly meant dose-corrected exposure relative to a reference, in per cent.

On to `CCCCc1ccc(O[C@H]2C[C@H]3CC[C@@H](C2)N3S(=O)(=O)c2c(C)n[nH]c2C)cc1` [Compound 39, (1R,3r,5S)-3-(4-Butylphenoxy)-8-((3,5-dimethyl-1H-pyrazol-4-yl)sulfonyl)-8-azabicyclo[3.2.1]octane], for which, in data set [1], the “% compound remaining at last time-point, plasma” value (from here on “% compound remaining”) was found to be 93% and the half-life at 2 μM was over 120 min. In data set [2], the “% compound remaining” value is reported as 93% and the half-life at 2 μM is over 120 min. In addition, in data set [3], the AUC at 4 h was 347 ng·h/mL, the Cmax at 4 h is 702 ng/mL, the time of peak concentration (Tmax) at 4 h was 5 min and the Vd at 4 h worked out at 4.45 L/kg. For the same compound, in data set [3], the clearance at 4 h amounted to 144 mL/min/kg, the exposure (AUC) at 8 h was 346 ng·h/mL, the peak level (Cmax at 8 h) was 297 ng/mL and the Tmax at 8 h was 30 min. In data set [3] (setting [4]), the bioavailability at 4 h worked out at 30%.
As to `CCOCc1cnc(O[C@H]2C[C@H]3CC[C@@H](C2)N3S(=O)(=O)c2c(C)n[nH]c2C)cn1` [Compound 50, (1R,3r,5S)-8-((3,5-Dimethyl-1H-pyrazol-4-yl)sulfonyl)-3-((5-(ethoxymethyl)pyrazin-2-yl)oxy)-8-azabicyclo[3.2.1]octane], in data set [1], the “% compound remaining” value was 95% and the half-life at 2 μM is over 120 min. In data set [2], the “% compound remaining” value was found to be 93% and the half-life at 2 μM was over 120 min. In data set [3], the area under the curve (AUC) at 4 h is 3370 ng·h/mL, the Cmax at 4 h was 5240 ng/mL, the time to peak (Tmax) at 4 h is 5 min and the Vd at 4 h was determined as 0.53 L/kg. For the same compound, in data set [3], the clearance at 4 h is 13 mL/min/kg, the AUC at 8 h is 6790 ng·h/mL, the maximum concentration (Cmax) at 8 h was 6870 ng/mL and the Tmax at 8 h was 15 min. Besides, in data set [3] (setting [4]), the bioavailability at 4 h was 60%. In data set [3] (oral, p.o. 10 mg/kg vs i.v. 3 mg/kg, read-out: F (oral bioavailability)), the bioavailability was about 60%.

Source of the values: paper PMC8474119, “Discovery and SAR Evolution of Pyrazole Azabicyclo[3.2.1]octane Sulfonamides as a Novel Class of Non-Covalent N-Acylethanolamine-Hydrolyzing Acid Amidase (NAAA) Inhibitors for Oral Administration” (Journal of Medicinal Chemistry, 2021).
